Test results: patent publication US12077508B2, “Inhibitors of the Notch transcriptional activation complex kinase (“NACK”) and methods for use of the same” (UNIVERSITY OF MIAMI, priority 2018, dated 2024)

What was measured:
[1] = test system: OE33 cell line; test: Colony formation assay in OE33 cells; type: cell-based, human; settings: for EC50: Homo sapiens, OE33, OE33 cell line, FIG. 18, read-out: EC50 colony formation titration assay
Experimental: (§1) A cell based colony formation assay was used in these experiments. Normal mouse mammary epithelia HC11 cells have little or no endogenous NACK expression, and NACK knockdown had no effect on the growth of HC11 cells (FIG. 5A, lower panel). […] Knockdown of NACK was confirmed by western blot and qPCR (FIGS. 1D and 1E). […] Therefore, compounds that affect OE33 colony formation but not HC11 were desired. In order to screen the compounds, cells were treated with test compounds every other day.
(§2) Colony formation assay was utilized to determine the effect of small molecule inhibitors on cell proliferation. In general, different cell lines (NACK dependent or independent) will be seeded in 6-well plates at a density of 2000 cells per well and allowed to attach overnight. Inhibitor treatment commenced 24 hours post seeding, and the media containing inhibitor was changed every 48 hours thereafter. After 168 hours, colonies were be stained with Crystal Violet (Millipore) and counted.

[2] = test system: HC11 cells; test: Colony formation assay in HC11 cells; type: cell-based, mouse; settings: Notch/NACK independent cell line; FIG. 5B
Experimental: as §1, §2

[3] = test system: Notch target genes; test: RT-qPCR of Notch target genes in Notch/NACK-dependent cells; type: cell-based, human; settings: for down regulation of Notch target genes (q-PCR profile): compared to Z271-0326, FIGS. 13A-13D
Experimental: To assess the effect of NACK inhibitor on Notch target gene transcription, Notch/NACK-dependent cell lines were treated with NACK inhibitors. The cells were also treated with DAPT as a positive control. DMSO treated cells served as a vehicle control for comparison. Gene expression was normalized to HPRT, and TBP served as a negative control to validate normalization.
Reverse transcription and qPCR analysis were performed as described previously (See Weaver et al., Cancer Research 74, 4741-4751 (2014)). Gene expression was normalized to the TATA-binding protein (“TBP”) gene. As a control, hypoxanthine phosphoribosyltransferase 1 (“HPRT”) gene expression was also monitored.

| Structure (SMILES) | EC50 [1] [µM] | down regulation of Notch target genes (q-PCR profile) [3] | other results |
| --- | --- | --- | --- |
| N#Cc1cccc(NC(=O)N2CCC(c3ccn4ncc(C(=O)N5CCCCC5)c4c3)CC2)c1 [Compound Z270-0137] |  |  | OE33 colony formation ([1]; cells treated every other day, FIGS. 5B, 5C): effectively inhibit OE33 colony formation; HC11 colony formation / viability [2]: but not HC11 cell |
| CC(=O)Nc1ccc(S(=O)(=O)N2CCC(c3ccn4ncc(C(=O)N5CCC5)c4c3)CC2)cc1 [Compound 71C, N-[4-({4-[3-(azetidine-1-carbonyl)pyrazolo[1,5-a]pyridin-5-yl]piperidin-1-yl}sulfonyl)phenyl]acetamide] | 0.33 |  |  |
| CC(=O)Nc1ccc(S(=O)(=O)N2CCC(c3ccn4ncc(C(=O)N5CCCC5)c4c3)CC2)cc1 [Compound 7H, N-[4-({4-[3-(pyrrolidine-1-carbonyl)pyrazolo[1,5-a]pyridin-5-yl]piperidin-1-yl}sulfonyl)phenyl]acetamide] |  | performed the best in down regulating Notch target genes, even better than Z271-0326 |  |
| CC(=O)Nc1ccc(S(=O)(=O)N2CCC(c3ccn4ncc(C(=O)N5CCCCC5)c4c3)CC2)cc1 [Compound 7M, N-[4-({4-[3-(piperidine-1-carbonyl)pyrazolo[1,5-a]pyridin-5-yl]piperidin-1-yl}sulfonyl)phenyl]acetamide] |  | can also down regulate Notch target genes, but not as good as compound 7H |  |
| CC(C)(C)OC(=O)Nc1ccc(S(=O)(=O)N2CCC(c3ccn4ncc(C(=O)N5CCCC5)c4c3)CC2)cc1 [Compound 71B, tert-butyl N-[4-({4-[3-(pyrrolidine-1-carbonyl)pyrazolo[1,5-a]pyridin-5-yl]piperidin-1-yl}sulfonyl)phenyl]carbamate] | 0.608 |  |  |
| CCN(CC)C(=O)c1cnn2ccc(C3CCN(S(=O)(=O)c4ccc(NC(=O)OC)cc4)CC3)cc12 [Compound 7C, methyl N-[4-({4-[3-(diethylcarbamoyl)pyrazolo[1,5-a]pyridin-5-yl]piperidinyl}sulfonyl)phenyl]carbamate] |  |  | expression of oncogenes cMYC, CCND1, HES1 (Q-PCR) ([3]; with respect to DMSO and Z271-0326, FIG. 16): downregulate oncogenes cMYC, CCND1, and HES1 |
